Test results from PMC9145741, “Bioprospecting for Thermozymes and Characterization of a Novel Lipolytic Thermozyme Belonging to the SGNH/GDSL Family of Hydrolases” (International Journal of Molecular Sciences, 2022).

Test system: T1, LipB12_A11
T1 construct: EcoRV fosmid fragment subcloned in pJET1.2, E. coli T7 Express; no tag mentioned; heat step, ammonium sulphate, Superdex 75
Assay: p-nitrophenol release at […] nm, Michaelis-Menten non-linear regression
Type: biochemical
Settings: 60 °C, pH 9; 0.002-2 mM substrate

- Km: 17.3 ± 3.51 µM
Structure (SMILES): CCCCCCCCCCCC(=O)Oc1ccc([N+](=O)[O-])cc1 [pNP-laurate]
